≈ marks a conversion by molar mass, not a printed value. Read-outs that look alike come from different tables or passages of the source.
Legend:
Assay in all cases: Antibacterial activity (MIC), standard method of the Japanese Society of Chemotherapy
Type in all cases: cell-based
E. coli NIHJ = settings: Escherichia coli
Description: (§1) Antibacterial activity of the compounds of the present invention was measured in accordance with the standard method specified by the Japanese Society of Chemotherapy.

K. pneumoniae TYPE 1 = settings: Klebsiella pneumoniae, TYPE1
Description: as §1

H. influenzae ATCC49247 = settings: Haemophilus influenzae
Description: as §1

S. marcescens 10100 = settings: Serratia marcescens
Description: as §1

S. aureus 870307 = settings: Staphylococcus aureus
Description: as §1

S. aureus FDA 209-P = settings: Staphylococcus aureus, FDA209
Description: as §1

S. pneumoniae J24 = settings: Streptococcus pneumoniae
Description: as §1

P. mirabilis 08103 = settings: Proteus mirabilis
Description: as §1

P. aeruginosa PAO1 = settings: Pseudomonas aeruginosa
Description: as §1

E. faecalis 19433 = settings: Enterococcus faecalis
Description: as §1

S. pneumoniae 104835 = settings: Streptococcus pneumoniae
Description: as §1

E. cloacae 03400 = settings: Enterobacter cloacae
Description: as §1

S. epidermidis 56500 = settings: Staphylococcus epidermidis
Description: as §1

[1] = test system: M(B). Caterrhalis ATCC25238
Description: as §1

[2] = test system: S. pyogenes JCM5674(ATCC12344); settings: Streptococcus pyogenes
Description: as §1

[3] = H. influenzae ATCC49247 (first half of Table 2), read-out: MIC, H. influenzae ATCC49247
[4] = M(B). Caterrhalis ATCC25238 (first half of Table 2), read-out: MIC, M(B). Caterrhalis ATCC25238

Row | Compound | MIC (E. coli NIHJ) [µg/mL] | MIC (K. pneumoniae TYPE 1) [µg/mL] | MIC (H. influenzae ATCC49247; [3]) [µg/mL] | MIC (S. marcescens 10100) [µg/mL] | MIC (S. aureus 870307) [µg/mL] | MIC (S. aureus FDA 209-P) [µg/mL] | MIC (S. pneumoniae J24) [µg/mL] | MIC (P. mirabilis 08103) [µg/mL] | MIC (P. aeruginosa PAO1) [µg/mL] | MIC (E. faecalis 19433) [µg/mL] | MIC (S. pneumoniae 104835) [µg/mL] | MIC (E. cloacae 03400) [µg/mL] | MIC (S. epidermidis 56500) [µg/mL] | MIC [1, 4] [µg/mL] | MIC [2] [µg/mL] | MIC (H. influenzae ATCC49247; ATCC 25238 / ATCC 49247, H. influenzae ATCC25238 as printed (second half of Table 2), read-out: MIC, H. influenzae ATCC25238) [µg/mL] | MIC ([1]; M(B). Caterrhalis [sic] ATCC49247 (Table 2), read-out: MIC, M(B). Caterrhalis ATCC49247) [µg/mL]
1 | COc1c(N2CC3(N)CCC4CC43C2)c(F)cc2c(=O)c(C(=O)O)cn([C@@H]3C[C@@H]3F)c12 (single isomer, unassigned) [Example 27] | 0.012 (≈ 0.0278 µM) | 0.1 (≈ 0.232 µM) | 0.006 (≈ 0.0139 µM) | 0.2 (≈ 0.464 µM) | 0.2 (≈ 0.464 µM) | 0.012 (≈ 0.0278 µM) | 0.025 (≈ 0.0579 µM) | 0.05 (≈ 0.116 µM) | 0.78 (≈ 1.81 µM) | 0.1 (≈ 0.232 µM) | 0.2 (≈ 0.464 µM) | 0.025 (≈ 0.0579 µM) | 0.05 (≈ 0.116 µM) | 0.05 (≈ 0.116 µM) | 0.05 (≈ 0.116 µM) | – | –
2 | Cc1c(N2C[C@]3(N)CCC[C@]3(F)C2)c(F)cc2c(=O)c(C(=O)O)cn([C@@H]3C[C@@H]3F)c12 [Example 17, 7-[(1R,5S)-1-Amino-5-fluoro-3-azabicyclo[3.3.0]octan-3-yl]-6-fluoro-1-[(1R,2S)-2-fluorocyclopropane]-1,4-dihydro-8-methyl-4-oxoquinoline-3-carboxylic acid] | ≤ 0.003 | 0.012 (≈ 0.0285 µM) | ≤ 0.003 | 0.05 (≈ 0.119 µM) | 0.2 (≈ 0.475 µM) | 0.006 (≈ 0.0142 µM) | 0.025 (≈ 0.0593 µM) | 0.006 (≈ 0.0142 µM) | 0.2 (≈ 0.475 µM) | 0.05 (≈ 0.119 µM) | 0.1 (≈ 0.237 µM) | 0.006 (≈ 0.0142 µM) | 0.025 (≈ 0.0593 µM) | 0.006 (≈ 0.0142 µM) | 0.025 (≈ 0.0593 µM) | – | –

More lines, in order of falling MIC (E. coli NIHJ), values ahead:

Row | MIC (E. coli NIHJ) [µg/mL] | MIC (K. pneumoniae TYPE 1) [µg/mL] | MIC (H. influenzae ATCC49247; [3]) [µg/mL] | MIC (S. marcescens 10100) [µg/mL] | MIC (S. aureus 870307) [µg/mL] | MIC (S. aureus FDA 209-P) [µg/mL] | MIC (S. pneumoniae J24) [µg/mL] | MIC (P. mirabilis 08103) [µg/mL] | MIC (P. aeruginosa PAO1) [µg/mL] | MIC (E. faecalis 19433) [µg/mL] | MIC (S. pneumoniae 104835) [µg/mL] | MIC (E. cloacae 03400) [µg/mL] | MIC (S. epidermidis 56500) [µg/mL] | MIC [1, 4] [µg/mL] | MIC [2] [µg/mL] | MIC (H. influenzae ATCC49247; ATCC 25238 / ATCC 49247, H. influenzae ATCC25238 as printed (second half of Table 2), read-out: MIC, H. influenzae ATCC25238) [µg/mL] | MIC ([1]; M(B). Caterrhalis [sic] ATCC49247 (Table 2), read-out: MIC, M(B). Caterrhalis ATCC49247) [µg/mL] | Compound
3 | 0.025 (≈ 0.0596 µM) | 0.1 (≈ 0.238 µM) | 0.006 (≈ 0.0143 µM) | 0.2 (≈ 0.477 µM) | 0.1 (≈ 0.238 µM) | ≤ 0.003 | 0.012 (≈ 0.0286 µM) | 0.012 (≈ 0.0286 µM) | 0.78 (≈ 1.86 µM) | 0.05 (≈ 0.119 µM) | 0.1 (≈ 0.238 µM) | 0.025 (≈ 0.0596 µM) | 0.012 (≈ 0.0286 µM) | 0.025 (≈ 0.0596 µM) | 0.025 (≈ 0.0596 µM) | – | – | COc1c(N2C[C@H]3[C@@H](C)C[C@@]3(N)C2)c(F)cc2c(=O)c(C(=O)O)cn([C@@H]3C[C@@H]3F)c12 [Example 2, 7-{(1S,5R,6S)-1-Amino-6-methyl-3-azabicyclo[3.2.0]hept-3-yl}-6-fluoro-1-[(1R,2S)-2-fluorocyclopropyl]-1,4-dihydro-8-methoxy-4-oxoquinoline-3-carboxylic acid]
4 | 0.025 (≈ 0.0596 µM) | 0.1 (≈ 0.238 µM) | 0.012 (≈ 0.0286 µM) | 0.2 (≈ 0.477 µM) | 0.2 (≈ 0.477 µM) | 0.006 (≈ 0.0143 µM) | 0.025 (≈ 0.0596 µM) | 0.025 (≈ 0.0596 µM) | 0.78 (≈ 1.86 µM) | 0.1 (≈ 0.238 µM) | 0.2 (≈ 0.477 µM) | 0.025 (≈ 0.0596 µM) | 0.025 (≈ 0.0596 µM) | 0.05 (≈ 0.119 µM) | 0.05 (≈ 0.119 µM) | – | – | COc1c(N2C[C@H]3[C@H](C)C[C@@]3(N)C2)c(F)cc2c(=O)c(C(=O)O)cn([C@@H]3C[C@@H]3F)c12 [Example 5, 7-{(1S,5R,6R)-1-Amino-6-methyl-3-azabicyclo[3.2.0]hept-3-yl}-6-fluoro-1-[(1R,2S)-2-fluorocyclopropyl]-1,4-dihydro-8-methoxy-4-oxoquinoline-3-carboxylic acid]
5 | 0.006 (≈ 0.0138 µM) | 0.05 (≈ 0.115 µM) | – | 0.1 (≈ 0.231 µM) | 0.1 (≈ 0.231 µM) | 0.012 (≈ 0.0277 µM) | 0.025 (≈ 0.0577 µM) | 0.012 (≈ 0.0277 µM) | 0.39 (≈ 0.9 µM) | 0.1 (≈ 0.231 µM) | 0.2 (≈ 0.461 µM) | 0.012 (≈ 0.0277 µM) | 0.05 (≈ 0.115 µM) | – | 0.025 (≈ 0.0577 µM) | 0.012 (≈ 0.0277 µM) | 0.025 (≈ 0.0577 µM) | COc1c(N2C[C@@H]3CCCC[C@@]3(N)C2)c(F)cc2c(=O)c(C(=O)O)cn([C@@H]3C[C@@H]3F)c12 [Example 31, 7-[(1S,6S)-1-Amino-8-azabicyclo[4.3.0]nonan-8-yl]-6-fluoro-1-[(1R,2S)-2-fluorocyclopropyl]-8-methoxy-1,4-dihydro-4-oxoquinoline-3-carboxylic acid]
